The values below come from patent EP4467141A1, “PYRAZOLO-QUINOLINES AS SELECTIVE INHIBITORS OF GENOTOXIC STRESS-INDUCED IKK/NF- KB PATHWAYS FOR CANCER THERAPY” (Max-Delbrück-Centrum für Molekulare Medizin in der …, priority 2023, dated 2024).

Holding throughout (assay type): cell-based
Assay [1] deals with NF-κB subunit p65 phosphorylation (S536). The assay is described as follows: Western blot of p65 phosphorylation (S536) after TNFα in U2-OS cells. The note with it: 1-hour pre-treatment, TNFα 10 ng/ml, 20 min. The procedure: Fig.1: Identification of inhibitors specific for DNA damage-induced NF-κB activity. (A) Flowchart representing the high-throughput chemical library screening. A screen/counter-screen strategy was used by stimulating NF-κB in U2-OS cells with etoposide (50 µM for 90 min) and hits were counter-screened with TNFα (10 ng/ml for 20 min). Cells were pre-treated with compounds (10 µM) for 1 hour before stimulation, fixed, and percent p65 nuclear translocation measured by fluorescence microscopy. IC50 values were used for final selection. (B) Comparison of mean p65 nuclear translocation following either etoposide or TNFa stimulation after treatment with each counter-screened hit compound. Values were normalized to etoposide or TNFα positive controls. Specific inhibitors (red) of DNA damage-induced NF-κB signaling were defined by setting cut-off criteria (black line). […] (C) IC50 determination for MW01 (left) and MW05 (right) of p65 nuclear translocation, following either etoposide or TNFα treatment. […] IC50 noted with a dotted line. […] (E) Western blot analysis (top) and quantification (bottom) of NF-κB subunit p65 phosphorylation (S536) following 1-hour pre-treatment with DMSO, MW01 (10 µM), or MW05 (10 µM), in unstimulated, after 90 min irradiation (IR, 20 Gy), or after 20 min TNFα (10 ng/mL) conditions in U2- OS cells. […]
NF-κB was stimulated by DNA damage through either 20 Gy irradiation (IR) and analyzed after 90 minutes or by 10 ng/ml TNFα and analyzed after 20 minutes unless otherwise noted. […]
Cells were collected by scraping and lysed in Baeuerle lysis buffer supplemented with Protease (Thermo Fisher Scientific, 78429) and Phosphatase (Thermo Fisher Scientific, 78420) inhibitors after the appropriate treatment and time point. Proteins were quantified by Bradford assay (Bio-Rad, 5000006) and 20-50 µg of extracted proteins were loaded on 4-20% Protein Gel (Bio-Rad, 4568096) and then transferred onto a PVDF membrane (Bio-Rad, 1620177) using Tris-Glycine buffer with 20% of methanol. […]
For orientation: A western blot detects proteins with antibodies after separation by electrophoresis.

Assay [2] relates to p65 nuclear translocation. The assay is described as follows: HCS screening: etoposide-induced p65 nuclear translocation in U2-OS cells. Particulars: Homo sapiens, U2OS, read-out: etoposide-stimulated IC50 of p65 nuclear translocation. The procedure: Fig.1: Identification of inhibitors specific for DNA damage-induced NF-κB activity. (A) Flowchart representing the high-throughput chemical library screening. A screen/counter-screen strategy was used by stimulating NF-κB in U2-OS cells with etoposide (50 µM for 90 min) and hits were counter-screened with TNFα (10 ng/ml for 20 min). Cells were pre-treated with compounds (10 µM) for 1 hour before stimulation, fixed, and percent p65 nuclear translocation measured by fluorescence microscopy. IC50 values were used for final selection. (B) Comparison of mean p65 nuclear translocation following either etoposide or TNFa stimulation after treatment with each counter-screened hit compound. Values were normalized to etoposide or TNFα positive controls. Specific inhibitors (red) of DNA damage-induced NF-κB signaling were defined by setting cut-off criteria (black line). […] (E) Western blot analysis (top) and quantification (bottom) of NF-κB subunit p65 phosphorylation (S536) following 1-hour pre-treatment with DMSO, MW01 (10 µM), or MW05 (10 µM), in unstimulated, after 90 min irradiation (IR, 20 Gy), or after 20 min TNFα (10 ng/mL) conditions in U2- OS cells. […]
To identify inhibitors that selectively prevent DNA damage-induced NF-κB activation, we established a high-throughput screening platform quantifying p65 nuclear translocation, an essential step in NF-κB activation (Hayden and Ghosh, 2008). […]

In assay [3] the test system is NF-κB subunit p65 phosphorylation (S536). The assay is described as follows: Western blot of p65 phosphorylation (S536) after DNA damage (irradiation or etoposide) in U2-OS cells. Particulars: 10 µM plus etoposide 50 µM, 24 hours.

As usually defined, the IC50 is the concentration at which inhibition is half-maximal. Regarding `COc1ccc2c(c1OC)c(=O)n1c3ccc(O)cc3c3ccnc2c31` [MW01, 5-Hydroxy-10,11-dimethoxy-9H-benzo[c]indolo[3,2,1-ij][1,5]naphthyridin-9-one], in assay [1], the “phosphorylation of p65 at serine 536, TNFα-stimulated” value is “untouched”. For the same compound, the IC50 in assay [2] was 460 nM. The “etoposide-stimulated p65 phosphorylation” value in assay [3] is “abrogated”.
The matching figures for `COc1ccc2cc3c(N)nn(C(=O)c4cccc(N(C)C)c4)c3nc2c1` [MW05, (3-Amino-7-methoxypyrazolo[3,4-b]quinolin-1-yl)-[3-(dimethylamino)phenyl]methanone]: “untouched”, 690 nM and “abrogated”.
